Laboratory results published in patent publication US20210204544A1, “AGROCHEMICAL FORMULATIONS CONTAINING A POLYMERIC CRYSTAL GROWTH INHIBITOR” (priority 2018, published 2021).

Experiment: Crystal growth of micronized fluopyram crystals suspended in water, with or without polymeric crystal growth inhibitor, on accelerated aging (FIG. 1)
Type: physicochemical
Details: 54° C.; observed at 4 days, 35 days, then additional 2 weeks cycling -20° C./40° C.; Rhodoline 111 at 3% w/w, HPMC at 0.2% w/w
Description: FIG. 1 depicts the effect of polymeric crystal growth inhibitor on active ingredient while suspended in water. […] Polymeric crystal growth inhibitors were evaluated by suspending micronized fluopyram active ingredient crystal in water.

## O=C(NCCc1ncc(C(F)(F)F)cc1Cl)c1ccccc1C(F)(F)F [fluopyram, N-[2-[3-chloro-5-(trifluoromethyl)pyridin-2-yl]ethyl]-2-(trifluoromethyl)benzamide]
  crystal growth of fluopyram crystals suspended in water: severe needle-shaped crystal growth
